Experimental data published in patent US20230085307A1, “PYRIDAZINONE COMPOUND AND HERBICIDE” (NISSAN CHEMICAL CORPORATION, priority 2019, published 2023).

How the values were obtained:
barnyard grass [1] = assay: Test Example 5: herbicidal effect by foliage application, plastic box (Table 20, symbol H); format: in vivo, barnyard grass (Echinochloa crus-galli); details: foliage application, AAH 320 g/ha, three weeks after application
Procedure, shortened: (§1)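 Sow seeds spot-wise in sterilized diluvial soil; cover with ~1.5 cm soil. Grow 14 days in greenhouse, 25° C. to 30° C. Spray foliage with emulsion diluted to predetermined amount. Rate effect after 3 weeks.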

redroot pigweed [2] = assay: Test Example 4: herbicidal effect by soil treatment (Table 19, symbol N); format: in vivo, redroot pigweed (Amaranthus retroflexus); details: AAH 320 g/ha
Procedure, shortened: (§2)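 Soil-surface application: an emulsion agent diluted with water to the predetermined dose is sprayed uniformly over seeds lying under roughly 1.5 cm of sterilized diluvial soil. Boxes stay in a greenhouse at 25° C. to 30° C. Three weeks later, each species is graded on previously defined criteria.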

Chinese sprangletop = assay: Test Example 3: herbicidal effect by foliage application, Wagner pot (Table 18, symbol D); format: in vivo, chinese sprangletop (Leptochloa chinensis); details: 320 g/ha
Procedure, shortened: (§3)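 Plants were sown in alluvial soil held under 0.1–0.5 cm standing water and grown 14 days in a greenhouse at 25–30 °C. An emulsifiable formulation, water-diluted to the set dose, was then sprayed onto the foliage, and effects were scored three weeks later using previously defined criteria.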

wild oat [3] = assay: Test Example 4: herbicidal effect by soil treatment (Table 19, symbol I); format: in vivo, wild oat (Avena fatua); details: AAH 320 g/ha
Procedure, shortened: as §2

persian speedwell [4] = assay: Test Example 5: herbicidal effect by foliage application, plastic box (Table 20, symbol R); format: in vivo, Persian speedwell (Veronica persica); details: foliage application, AAH 320 g/ha, three weeks after application
Procedure, shortened: as §1

rice flat sedge = assay: Test Example 3: herbicidal effect by foliage application, Wagner pot (Table 18, symbol E); format: in vivo, rice flat sedge (Cyperus iria); details: 320 g/ha
Procedure, shortened: as §3

windgrass [5] = assay: Test Example 4: herbicidal effect by soil treatment (Table 19, symbol L); format: in vivo, windgrass (Apera spica-venti); details: AAH 320 g/ha
Procedure, shortened: as §2

lambsquarters [6] = assay: Test Example 4: herbicidal effect by soil treatment (Table 19, symbol O); format: in vivo, lambsquarters (Chenopodium album); details: AAH 320 g/ha
Procedure, shortened: as §2

chickweed [7] = assay: Test Example 4: herbicidal effect by soil treatment (Table 19, symbol P); format: in vivo, common chickweed (Stellaria media); details: AAH 320 g/ha
Procedure, shortened: as §2

chickweed [8] = assay: Test Example 5: herbicidal effect by foliage application, plastic box (Table 20, symbol P); format: in vivo, common chickweed (Stellaria media); details: foliage application, AAH 320 g/ha, three weeks after application
Procedure, shortened: as §1

lambsquarters [9] = assay: Test Example 5: herbicidal effect by foliage application, plastic box (Table 20, symbol O); format: in vivo, lambsquarters (Chenopodium album); details: foliage application, AAH 320 g/ha, three weeks after application
Procedure, shortened: as §1

southern crabgrass [10] = assay: Test Example 5: herbicidal effect by foliage application, plastic box (Table 20, symbol F); format: in vivo, southern crabgrass (Digitaria ciliaris); details: foliage application, AAH 320 g/ha, three weeks after application
Procedure, shortened: as §1

Italian ryegrass [11] = assay: Test Example 4: herbicidal effect by soil treatment (Table 19, symbol K); format: in vivo, Italian ryegrass (Lolium multiflorum); details: AAH 320 g/ha
Procedure, shortened: as §2

persian speedwell [12] = assay: Test Example 4: herbicidal effect by soil treatment (Table 19, symbol R); format: in vivo, Persian speedwell (Veronica persica); details: AAH 320 g/ha
Procedure, shortened: as §2

southern crabgrass [13] = assay: Test Example 4: herbicidal effect by soil treatment (Table 19, symbol F); format: in vivo, southern crabgrass (Digitaria ciliaris); details: AAH 320 g/ha
Procedure, shortened: as §2

Italian ryegrass [14] = assay: Test Example 5: herbicidal effect by foliage application, plastic box (Table 20, symbol K); format: in vivo, Italian ryegrass (Lolium multiflorum); details: foliage application, AAH 320 g/ha, three weeks after application
Procedure, shortened: as §1

velvetleaf [15] = assay: Test Example 4: herbicidal effect by soil treatment (Table 19, symbol M); format: in vivo, velvetleaf (Abutilon theophrasti); details: AAH 320 g/ha
Procedure, shortened: as §2

barnyard grass [16] = assay: Test Example 4: herbicidal effect by soil treatment (Table 19, symbol H); format: in vivo, barnyard grass (Echinochloa crus-galli); details: AAH 320 g/ha
Procedure, shortened: as §2

green foxtail [17] = assay: Test Example 4: herbicidal effect by soil treatment (Table 19, symbol G); format: in vivo, green foxtail (Setaria viridis); details: AAH 320 g/ha
Procedure, shortened: as §2

blackgrass [18] = assay: Test Example 5: herbicidal effect by foliage application, plastic box (Table 20, symbol J); format: in vivo, blackgrass (Alopecurus myosuroides); details: foliage application, AAH 320 g/ha, three weeks after application
Procedure, shortened: as §1

velvetleaf [19] = assay: Test Example 5: herbicidal effect by foliage application, plastic box (Table 20, symbol M); format: in vivo, velvetleaf (Abutilon theophrasti); details: foliage application, AAH 320 g/ha, three weeks after application
Procedure, shortened: as §1

barnyard grass [20] = assay: Test Example 3: herbicidal effect by foliage application, Wagner pot (Table 18, symbol H); format: in vivo, barnyard grass (Echinochloa crus-galli); details: 320 g/ha
Procedure, shortened: as §3

wild oat [21] = assay: Test Example 5: herbicidal effect by foliage application, plastic box (Table 20, symbol I); format: in vivo, wild oat (Avena fatua); details: foliage application, AAH 320 g/ha, three weeks after application
Procedure, shortened: as §1

blackgrass [22] = assay: Test Example 4: herbicidal effect by soil treatment (Table 19, symbol J); format: in vivo, blackgrass (Alopecurus myosuroides); details: AAH 320 g/ha
Procedure, shortened: as §2

redroot pigweed [23] = assay: Test Example 5: herbicidal effect by foliage application, plastic box (Table 20, symbol N); format: in vivo, redroot pigweed (Amaranthus retroflexus); details: foliage application, AAH 320 g/ha, three weeks after application
Procedure, shortened: as §1

windgrass [24] = assay: Test Example 5: herbicidal effect by foliage application, plastic box (Table 20, symbol L); format: in vivo, windgrass (Apera spica-venti); details: foliage application, AAH 320 g/ha, three weeks after application
Procedure, shortened: as §1

green foxtail [25] = assay: Test Example 5: herbicidal effect by foliage application, plastic box (Table 20, symbol G); format: in vivo, green foxtail (Setaria viridis); details: foliage application, AAH 320 g/ha, three weeks after application
Procedure, shortened: as §1

Row | SMILES | H: barnyard grass, herbicidal effect (barnyard grass [1]) | N: redroot pigweed, herbicidal effect rating (redroot pigweed [2]) | herbicidal effect on D (Chinese sprangletop), rating 0-5 (Chinese sprangletop) | I: wild oat, herbicidal effect rating (wild oat [3]) | R: persian speedwell, herbicidal effect (persian speedwell [4]) | herbicidal effect on E (rice flat sedge), rating 0-5 (rice flat sedge) | L: windgrass, herbicidal effect rating (windgrass [5]) | O: lambsquarters, herbicidal effect rating (lambsquarters [6]) | P: chickweed, herbicidal effect rating (chickweed [7]) | P: chickweed, herbicidal effect (chickweed [8]) | O: lambsquarters, herbicidal effect (lambsquarters [9]) | F: southern crabgrass, herbicidal effect (southern crabgrass [10]) | K: Italian ryegrass, herbicidal effect rating (Italian ryegrass [11]) | R: persian speedwell, herbicidal effect rating (persian speedwell [12]) | F: southern crabgrass, herbicidal effect rating (southern crabgrass [13]) | K: Italian ryegrass, herbicidal effect (Italian ryegrass [14]) | M: velvetleaf, herbicidal effect rating (velvetleaf [15]) | H: barnyard grass, herbicidal effect rating (barnyard grass [16]) | G: green foxtail, herbicidal effect rating (green foxtail [17]) | J: blackgrass, herbicidal effect (blackgrass [18]) | also measured
1 | COc1nn(C)c(=O)c(-c2c(-c3ccc([N+](=O)[O-])cc3)sc3ccccc23)c1O [1-168] | 2 (Herbicidal rate of 20% or more and less than 40%) | 1 (Herbicidal rate of 5% or more and less than 20%) | 0 (Herbicidal rate of 5% or less (almost no effect)) | 0 (Herbicidal rate of 5% or less (almost no effect)) | 5 (Herbicidal rate of 90% or more (almost completely withered)) | 3 (Herbicidal rate of 40% or more and less than 70%) | 0 (Herbicidal rate of 5% or less (almost no effect)) | 0 (Herbicidal rate of 5% or less (almost no effect)) | 4 (Herbicidal rate of 70% or more and less than 90%) | 5 (Herbicidal rate of 90% or more (almost completely withered)) | 4 (Herbicidal rate of 70% or more and less than 90%) | 3 (Herbicidal rate of 40% or more and less than 70%) | 0 (Herbicidal rate of 5% or less (almost no effect)) | 3 (Herbicidal rate of 40% or more and less than 70%) | 0 (Herbicidal rate of 5% or less (almost no effect)) | 2 (Herbicidal rate of 20% or more and less than 40%) | 0 (Herbicidal rate of 5% or less (almost no effect)) | 0 (Herbicidal rate of 5% or less (almost no effect)) | 0 (Herbicidal rate of 5% or less (almost no effect)) | 0 (Herbicidal rate of 5% or less (almost no effect)) | M: velvetleaf, herbicidal effect (velvetleaf [19]): 4 (Herbicidal rate of 70% or more and less than 90%); herbicidal effect on H (barnyard grass), rating 0-5 (barnyard grass [20]): 0 (Herbicidal rate of 5% or less (almost no effect)); I: wild oat, herbicidal effect (wild oat [21]): 0 (Herbicidal rate of 5% or less (almost no effect)); J: blackgrass, herbicidal effect rating (blackgrass [22]): 0 (Herbicidal rate of 5% or less (almost no effect)); N: redroot pigweed, herbicidal effect (redroot pigweed [23]): 5 (Herbicidal rate of 90% or more (almost completely withered)); L: windgrass, herbicidal effect (windgrass [24]): 0 (Herbicidal rate of 5% or less (almost no effect)); G: green foxtail, herbicidal effect (green foxtail [25]): 3 (Herbicidal rate of 40% or more and less than 70%)
2 | COc1nn(C)c(=O)c(-c2c(-c3ccc(C#N)cc3)sc3ccccc23)c1O [1-170] | 4 (Herbicidal rate of 70% or more and less than 90%) | 5 (Herbicidal rate of 90% or more (almost completely withered)) | 1 (Herbicidal rate of 5% or more and less than 20%) | 0 (Herbicidal rate of 5% or less (almost no effect)) | 5 (Herbicidal rate of 90% or more (almost completely withered)) | 5 (Herbicidal rate of 90% or more (almost completely withered)) | 0 (Herbicidal rate of 5% or less (almost no effect)) | 0 (Herbicidal rate of 5% or less (almost no effect)) | 4 (Herbicidal rate of 70% or more and less than 90%) | 5 (Herbicidal rate of 90% or more (almost completely withered)) | 5 (Herbicidal rate of 90% or more (almost completely withered)) | 3 (Herbicidal rate of 40% or more and less than 70%) | 0 (Herbicidal rate of 5% or less (almost no effect)) | 5 (Herbicidal rate of 90% or more (almost completely withered)) | 0 (Herbicidal rate of 5% or less (almost no effect)) | 3 (Herbicidal rate of 40% or more and less than 70%) | 0 (Herbicidal rate of 5% or less (almost no effect)) | 0 (Herbicidal rate of 5% or less (almost no effect)) | 0 (Herbicidal rate of 5% or less (almost no effect)) | 0 (Herbicidal rate of 5% or less (almost no effect)) | M: velvetleaf, herbicidal effect (velvetleaf [19]): 5 (Herbicidal rate of 90% or more (almost completely withered)); herbicidal effect on H (barnyard grass), rating 0-5 (barnyard grass [20]): 2 (Herbicidal rate of 20% or more and less than 40%); I: wild oat, herbicidal effect (wild oat [21]): 2 (Herbicidal rate of 20% or more and less than 40%); J: blackgrass, herbicidal effect rating (blackgrass [22]): 0 (Herbicidal rate of 5% or less (almost no effect)); N: redroot pigweed, herbicidal effect (redroot pigweed [23]): 5 (Herbicidal rate of 90% or more (almost completely withered)); L: windgrass, herbicidal effect (windgrass [24]): 0 (Herbicidal rate of 5% or less (almost no effect)); G: green foxtail, herbicidal effect (green foxtail [25]): 5 (Herbicidal rate of 90% or more (almost completely withered))
3 | CCCC(=O)Oc1c(OC)nn(C)c(=O)c1-c1c(-c2ccc(C#N)cc2)sc2ccccc12 [1-171] | 0 (Herbicidal rate of 5% or less (almost no effect)) | 5 (Herbicidal rate of 90% or more (almost completely withered)) | 0 (Herbicidal rate of 5% or less (almost no effect)) | 0 (Herbicidal rate of 5% or less (almost no effect)) | 4 (Herbicidal rate of 70% or more and less than 90%) | 4 (Herbicidal rate of 70% or more and less than 90%) | 0 (Herbicidal rate of 5% or less (almost no effect)) | 3 (Herbicidal rate of 40% or more and less than 70%) | 5 (Herbicidal rate of 90% or more (almost completely withered)) | 5 (Herbicidal rate of 90% or more (almost completely withered)) | 4 (Herbicidal rate of 70% or more and less than 90%) | 0 (Herbicidal rate of 5% or less (almost no effect)) | 0 (Herbicidal rate of 5% or less (almost no effect)) | 4 (Herbicidal rate of 70% or more and less than 90%) | 5 (Herbicidal rate of 90% or more (almost completely withered)) | 0 (Herbicidal rate of 5% or less (almost no effect)) | 0 (Herbicidal rate of 5% or less (almost no effect)) | 0 (Herbicidal rate of 5% or less (almost no effect)) | 0 (Herbicidal rate of 5% or less (almost no effect)) | 0 (Herbicidal rate of 5% or less (almost no effect)) | M: velvetleaf, herbicidal effect (velvetleaf [19]): 4 (Herbicidal rate of 70% or more and less than 90%); herbicidal effect on H (barnyard grass), rating 0-5 (barnyard grass [20]): 3 (Herbicidal rate of 40% or more and less than 70%); I: wild oat, herbicidal effect (wild oat [21]): 0 (Herbicidal rate of 5% or less (almost no effect)); J: blackgrass, herbicidal effect rating (blackgrass [22]): 0 (Herbicidal rate of 5% or less (almost no effect)); N: redroot pigweed, herbicidal effect (redroot pigweed [23]): 5 (Herbicidal rate of 90% or more (almost completely withered)); L: windgrass, herbicidal effect (windgrass [24]): 0 (Herbicidal rate of 5% or less (almost no effect)); G: green foxtail, herbicidal effect (green foxtail [25]): 0 (Herbicidal rate of 5% or less (almost no effect))
